Key:
[1] = target: GDP-bound HRAS wild-type protein (Homo sapiens, UniProt P01112); assay: Binding to HRAS by surface plasmon resonance (SPR), Single Cycle Kinetics; conditions: SPR, GDP-bound HRAS wild-type vs GDP-bound KRAS wild-type
[2] = target: GDP-bound NRAS wild-type protein (Homo sapiens, UniProt P01111); assay: Binding to NRAS by surface plasmon resonance (SPR), Single Cycle Kinetics; conditions: SPR, GDP-bound NRAS wild-type vs GDP-bound KRAS wild-type
Chain of GDP-bound NRAS wild-type protein (P01111 whole entry): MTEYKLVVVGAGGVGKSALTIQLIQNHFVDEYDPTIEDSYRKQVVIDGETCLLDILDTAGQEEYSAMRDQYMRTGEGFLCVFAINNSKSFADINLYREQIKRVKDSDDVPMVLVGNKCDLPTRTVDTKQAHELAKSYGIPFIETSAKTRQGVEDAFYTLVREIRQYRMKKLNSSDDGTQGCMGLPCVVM

Chain of GDP-bound HRAS wild-type protein (P01112 whole entry): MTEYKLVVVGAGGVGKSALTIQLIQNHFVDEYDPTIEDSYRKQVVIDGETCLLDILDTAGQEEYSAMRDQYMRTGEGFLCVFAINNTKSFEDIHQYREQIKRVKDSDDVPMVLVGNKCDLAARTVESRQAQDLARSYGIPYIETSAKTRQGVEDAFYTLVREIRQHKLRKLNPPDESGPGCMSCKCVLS

With `CCCOC[C@H]1C(=O)N[C@@H]([C@@H](C)CC)C(=O)N(C)CC(=O)N(C)[C@H]2C/C=C\CCN(C2=O)[C@@H](Cc2ccc(C(F)(F)F)cc2)C(=O)N(C)CC(=O)N[C@@H](CCc2cc(F)c(C(F)(F)F)c(F)c2)C(=O)N2C[C@@H](C)C[C@H]2C(=O)NC2(CC(C)(C)C2)C(=O)N(C)[C@@H](C2CCCC2)C(=O)N(C)[C@H](C(=O)N(C)CC)CC(=O)N1C` [PP2043] the “HRAS/KRAS (ratio of KD value with respect to HRAS to KD value with respect to KRAS)” value [1] was “A (a compound having 10 or more and less than 20 is denoted as A)” and the “NRAS/KRAS (ratio of KD value with respect to NRAS to KD value with respect to KRAS)” value [2] was “A (a compound having 10 or more and less than 20 is denoted as A)”.

For `CCO[C@@H]1C[C@H]2C(=O)NC3(CC(C)(C)C3)C(=O)N(C)[C@@H](C3CCCC3)C(=O)N(C)[C@H](C(=O)N(C)CC)CC(=O)N(C)[C@@H](CC(C)C)C(=O)N[C@@H]([C@@H](C)CC)C(=O)N(C)CC(=O)N(C)[C@H]3C/C=C\CCN(C3=O)[C@@H](Cc3ccc(C(F)F)cc3)C(=O)N(C)CC(=O)N[C@@H](CCc3cc(F)c(C(F)(F)F)c(F)c3)C(=O)N2C1` [PP2046], the “HRAS/KRAS (ratio of KD value with respect to HRAS to KD value with respect to KRAS)” value [1] was “A (a compound having 10 or more and less than 20 is denoted as A)” and the “NRAS/KRAS (ratio of KD value with respect to NRAS to KD value with respect to KRAS)” value [2] was “A (a compound having 10 or more and less than 20 is denoted as A)”.

For `CCO[C@@H]1C[C@H]2C(=O)NC3(CC(C)(C)C3)C(=O)N(C)[C@@H](C3CCCC3)C(=O)N(C)[C@H](C(=O)N(C)C)CC(=O)N(C)[C@@H](CC)C(=O)N[C@@H]([C@@H](C)CC)C(=O)N(C)CC(=O)N(C)[C@H]3C/C=C\CCN(C3=O)[C@@H](Cc3ccc(Cl)cc3F)C(=O)N(C)CC(=O)N[C@@H](CCc3cc(F)c(C(F)(F)F)c(F)c3)C(=O)N2C1` [PP2048], the “HRAS/KRAS (ratio of KD value with respect to HRAS to KD value with respect to KRAS)” value [1] was “B (a compound having 3 or more and less than 10 is denoted as B)” and the “NRAS/KRAS (ratio of KD value with respect to NRAS to KD value with respect to KRAS)” value [2] was “A (a compound having 10 or more and less than 20 is denoted as A)”.

`CCO[C@@H]1C[C@H]2C(=O)NC3(CC(C)(C)C3)C(=O)N(C)[C@@H](C3CCCC3)C(=O)N(C)[C@H](C(=O)N(C)C)CC(=O)N(C)[C@@H](CC)C(=O)N[C@@H]([C@@H](C)CC)C(=O)N(C)CC(=O)N(C)[C@H]3C/C=C\CCN(C3=O)[C@@H](Cc3ccc(C(F)F)cc3)C(=O)N(C)CC(=O)N[C@@H](CCc3cc(F)c(C(F)(F)F)c(F)c3)C(=O)N2C1` [PP2049] was tested, and the “HRAS/KRAS (ratio of KD value with respect to HRAS to KD value with respect to KRAS)” value [1] was “B (a compound having 3 or more and less than 10 is denoted as B)” and the “NRAS/KRAS (ratio of KD value with respect to NRAS to KD value with respect to KRAS)” value [2] was “A (a compound having 10 or more and less than 20 is denoted as A)”.

With `C=CCN1CC(=O)N(C)[C@H]2C/C=C\CCN(C2=O)[C@@H](Cc2ccc(C)cc2)C(=O)N(C)CC(=O)N[C@@H](CCc2cc(F)c(C(F)(F)F)c(F)c2)C(=O)N2C[C@H](OCC)C[C@H]2C(=O)NC2(CC(C)(C)C2)C(=O)N(C)[C@@H](C2CCCC2)C(=O)N(C)[C@H](C(=O)N(C)C)CC(=O)N(C)[C@@H](CC(C)C)C(=O)N[C@@H]([C@@H](C)CC)C1=O` [PP2050] the “HRAS/KRAS (ratio of KD value with respect to HRAS to KD value with respect to KRAS)” value [1] was “A (a compound having 10 or more and less than 20 is denoted as A)” and the “NRAS/KRAS (ratio of KD value with respect to NRAS to KD value with respect to KRAS)” value [2] was “A (a compound having 10 or more and less than 20 is denoted as A)”.

`C#CC[C@H]1C(=O)N[C@@H]([C@@H](C)CC)C(=O)N(C)CC(=O)N(C)[C@H]2C/C=C\CCN(C2=O)[C@@H](Cc2ccc(C(F)(F)F)cc2)C(=O)N(C)CC(=O)N[C@@H](CCc2ccc(C(F)(F)F)c(OC)c2)C(=O)N2C[C@H](OCC)C[C@H]2C(=O)NC2(CC(C)(C)C2)C(=O)N(C)[C@@H](C2CCCC2)C(=O)N(C)[C@H](C(=O)N(C)CC)CC(=O)N1C` [PP2051] was tested, and the “HRAS/KRAS (ratio of KD value with respect to HRAS to KD value with respect to KRAS)” value [1] was “A (a compound having 10 or more and less than 20 is denoted as A)” and the “NRAS/KRAS (ratio of KD value with respect to NRAS to KD value with respect to KRAS)” value [2] was “A (a compound having 10 or more and less than 20 is denoted as A)”.

For `C#CCN1CC(=O)N(C)[C@H]2C/C=C\CCN(C2=O)[C@@H](Cc2ccc(C)cc2)C(=O)N(C)CC(=O)N[C@@H](CCc2cc(F)c(C(F)(F)F)c(F)c2)C(=O)N2C[C@H](OCC)C[C@H]2C(=O)NC2(CC(C)(C)C2)C(=O)N(C)[C@@H](C2CCCC2)C(=O)N(C)[C@H](C(=O)N(C)C)CC(=O)N(C)[C@@H](CC(C)C)C(=O)N[C@@H]([C@@H](C)CC)C1=O` [PP2052], the “HRAS/KRAS (ratio of KD value with respect to HRAS to KD value with respect to KRAS)” value [1] was “A (a compound having 10 or more and less than 20 is denoted as A)” and the “NRAS/KRAS (ratio of KD value with respect to NRAS to KD value with respect to KRAS)” value [2] was “A (a compound having 10 or more and less than 20 is denoted as A)”.

For `C#CC[C@H]1C(=O)N[C@@H]([C@@H](C)CC)C(=O)N(C)CC(=O)N(C)[C@H]2C/C=C\CCN(C2=O)[C@@H](Cc2ccc(C(F)(F)F)cc2)C(=O)N(C)CC(=O)N[C@@H](CCc2ccc(C(F)(F)F)c(OC)c2)C(=O)N2C[C@H](OCC)C[C@H]2C(=O)NC2(CC(C)(C)C2)C(=O)N(C)[C@@H](C2CCCC2)C(=O)N(C)[C@H](C(=O)N(C)CCC)CC(=O)N1C` [PP2053], the “HRAS/KRAS (ratio of KD value with respect to HRAS to KD value with respect to KRAS)” value [1] was “A (a compound having 10 or more and less than 20 is denoted as A)” and the “NRAS/KRAS (ratio of KD value with respect to NRAS to KD value with respect to KRAS)” value [2] was “A (a compound having 10 or more and less than 20 is denoted as A)”.

For `CCC[C@H]1C(=O)N[C@@H]([C@@H](C)CC)C(=O)N(CCC)CC(=O)N(C)[C@H]2C/C=C\CCN(C2=O)[C@@H](Cc2ccc(C)cc2)C(=O)N(C)CC(=O)N[C@@H](CCc2ccc(C(F)(F)F)c(OC)c2)C(=O)N2C[C@H](OCC)C[C@H]2C(=O)NC2(CC(C)(C)C2)C(=O)N(C)[C@@H](C2CCCC2)C(=O)N(C)[C@H](C(=O)N(C)C)CC(=O)N1C` [PP2054], the “HRAS/KRAS (ratio of KD value with respect to HRAS to KD value with respect to KRAS)” value [1] was “A (a compound having 10 or more and less than 20 is denoted as A)” and the “NRAS/KRAS (ratio of KD value with respect to NRAS to KD value with respect to KRAS)” value [2] was “A (a compound having 10 or more and less than 20 is denoted as A)”.

`C#CC[C@H]1C(=O)N[C@@H]([C@@H](C)CC)C(=O)N(C)CC(=O)N(C)[C@H]2C/C=C\CCN(C2=O)[C@@H](Cc2ccc(C(F)(F)F)cc2)C(=O)N(C)CC(=O)N[C@@H](CCc2ccc(C(F)(F)F)c(OC)c2)C(=O)N2C[C@@H](C)C[C@H]2C(=O)NC2(CC(C)(C)C2)C(=O)N(C)[C@@H](C2CCCC2)C(=O)N(C)[C@H](C(=O)N(C)CC)CC(=O)N1C` [PP2055] was tested, and the “HRAS/KRAS (ratio of KD value with respect to HRAS to KD value with respect to KRAS)” value [1] was “B (a compound having 3 or more and less than 10 is denoted as B)” and the “NRAS/KRAS (ratio of KD value with respect to NRAS to KD value with respect to KRAS)” value [2] was “A (a compound having 10 or more and less than 20 is denoted as A)”.

In the case of `C#CC[C@H]1C(=O)N[C@@H]([C@@H](C)CC)C(=O)N(C)CC(=O)N(C)[C@H]2C/C=C\CCN(C2=O)[C@@H](Cc2ccc(C(F)(F)F)cc2)C(=O)N(C)CC(=O)N[C@@H](CCc2ccc(C(F)(F)F)c(OC)c2)C(=O)N2C[C@@H](C)C[C@H]2C(=O)NC2(CC(C)(C)C2)C(=O)N(C)[C@@H](C2CCCC2)C(=O)N(C)[C@H](C(=O)N(C)CCC)CC(=O)N1C` [PP2057], the “HRAS/KRAS (ratio of KD value with respect to HRAS to KD value with respect to KRAS)” value [1] is reported as “A (a compound having 10 or more and less than 20 is denoted as A)” and the “NRAS/KRAS (ratio of KD value with respect to NRAS to KD value with respect to KRAS)” value [2] is reported as “A (a compound having 10 or more and less than 20 is denoted as A)”.

With `C=CCN1CC(=O)N(C)[C@H]2C/C=C\CCN(C2=O)[C@@H](Cc2ccc(C)cc2)C(=O)N(C)CC(=O)N[C@@H](CCc2ccc(C(F)(F)F)c(OC)c2)C(=O)N2C[C@H](OCC)C[C@H]2C(=O)NC2(CC(C)(C)C2)C(=O)N(C)[C@@H](C2CCCC2)C(=O)N(C)[C@H](C(=O)N(C)C)CC(=O)N(C)[C@@H](CC(C)C)C(=O)N[C@@H]([C@@H](C)CC)C1=O` [PP2058] the “HRAS/KRAS (ratio of KD value with respect to HRAS to KD value with respect to KRAS)” value [1] was “A (a compound having 10 or more and less than 20 is denoted as A)” and the “NRAS/KRAS (ratio of KD value with respect to NRAS to KD value with respect to KRAS)” value [2] was “A (a compound having 10 or more and less than 20 is denoted as A)”.

`C#CC[C@H]1C(=O)N[C@@H]([C@@H](C)CC)C(=O)N(C)CC(=O)N(C)[C@H]2C/C=C\CCN(C2=O)[C@@H](Cc2ccc(C(F)(F)F)cc2)C(=O)N(C)CC(=O)N[C@@H](CCc2ccc(C(F)(F)F)c(OC)c2)C(=O)N2C[C@H](OCC)C[C@H]2C(=O)NC2(CCC2)C(=O)N(C)[C@@H](C2CCCC2)C(=O)N(C)[C@H](C(=O)N(C)CCC)CC(=O)N1C` [PP2059] was tested, and the “HRAS/KRAS (ratio of KD value with respect to HRAS to KD value with respect to KRAS)” value [1] was “A (a compound having 10 or more and less than 20 is denoted as A)” and the “NRAS/KRAS (ratio of KD value with respect to NRAS to KD value with respect to KRAS)” value [2] was “A (a compound having 10 or more and less than 20 is denoted as A)”.

With `C#CC[C@H]1C(=O)N[C@@H]([C@@H](C)CC)C(=O)N(C)CC(=O)N(C)[C@H]2C/C=C\CCN(C2=O)[C@@H](Cc2ccc(C(F)(F)F)cc2)C(=O)N(C)CC(=O)N[C@@H](CCc2ccc(C(F)(F)F)c(OC)c2)C(=O)N2C[C@@H](C)C[C@H]2C(=O)NC2(CCC2)C(=O)N(C)[C@@H](C2CCCC2)C(=O)N(C)[C@H](C(=O)N(C)CC)CC(=O)N1C` [PP2061] the “HRAS/KRAS (ratio of KD value with respect to HRAS to KD value with respect to KRAS)” value [1] was “A (a compound having 10 or more and less than 20 is denoted as A)” and the “NRAS/KRAS (ratio of KD value with respect to NRAS to KD value with respect to KRAS)” value [2] was “AA (a compound having 20 or more is denoted as AA)”.

With `CCO[C@@H]1C[C@H]2C(=O)NC3(CC(C)(C)C3)C(=O)N(C)[C@@H](C(CC)CC)C(=O)N(C)[C@H](C(=O)N(C)C)CC(=O)N(C)[C@@H](CC)C(=O)N[C@@H]([C@@H](C)CC)C(=O)N(C)CC(=O)N(C)[C@H]3C/C=C\CCN(C3=O)[C@@H](Cc3ccc(C(F)(F)F)cc3)C(=O)N(C)CC(=O)N[C@@H](CCc3cc(F)c(C(F)(F)F)c(F)c3)C(=O)N2C1` [PP2062] the “HRAS/KRAS (ratio of KD value with respect to HRAS to KD value with respect to KRAS)” value [1] was “A (a compound having 10 or more and less than 20 is denoted as A)” and the “NRAS/KRAS (ratio of KD value with respect to NRAS to KD value with respect to KRAS)” value [2] was “AA (a compound having 20 or more is denoted as AA)”.
